From US10264976B2, “Biocompatible flavonoid compounds for organelle and cell imaging” (The University of Akron, priority 2015, dated 2019)

Legend:
[1] = test system: mitochondria in CCCP-treated hMSCs; test: Effects of CCCP on uptake of dyes; type: cell-based, human; conditions: for specificity to mitochondria after CCCP treatment / uptake / imaging signal (sensitivity) after CCCP treatment: hMSCs pre-treated with 10 μM CCCP for 30 min, 5 μM dye, 25 nM MT, 25 min
Text: Mitochondria can continuously oxidize substrates and maintain a proton gradient across the lipid bilayer with very large membrane potential (−180 mV). The membrane potential as the major driving force enables the entrance and accumulation of the cationic species into mitochondria rather than cell plasma. CCCP is an uncoupler that causes rapid acidification of mitochondria and dysfunction of ATP synthase resulting in the decrease of mitochondrial membranes potential. To confirm the tolerances of MC-Mito1 and MC-Mito2, carbonyl cyanide m-chlorophenylhydrazone (CCCP) was used to treat the cells prior to the staining procedure.
It was expected because CCCP-induced decrease of membranes potential will severely affect the direction and accumulation of cationic mitochondrial probes. The most of commercial mitochondrial probes are suffered by the similar limitation. […] Compared with MC-Mito1, MC-Mito2 has longer hydrophobic linker between the flavone dye and the cation. Since mitochondrial membrane is composed of phospholipid bilayers and proteins, the stronger lipophilicity has been supposed to play an important role in retaining the specificity of MC-Mito2 in CCCP-treated cells.
The hMSCs were treated with 10 μM carbonyl cyanide m-chlorophenylhydrazone (CCCP) for 30 min. and then were washed with fresh medium. After that, the cells were incubated with 5 μM MC-Mito1 and 25 nM MT, 5 μM MC-Mito2 and 25 nM MT for 25 min at 37° C., respectively. After staining, the cells were imaged by microscope without PBS solution washing procedure.

hMSCs [2] = test: Cytotoxicity determined by MTT method; type: cell-based, human; conditions: for cell viability: hMSCs, 0, 2, 5, 10 μM, 24 h
Experimental: Before the application for cell imaging, the cytotoxicity of MC-Mito1 and MC-Mito2 were evaluated by the widely used MTT assay to evaluate the tolerance of sensors to their working concentrations. The samples were incubated with 0, 2, 5, 10 μM MC-Mito1, MC-Mito2 and Mitotracker® red CMXRos (MT) for 24 h, respectively (FIG. 5). […] In contrast, only less than 10% of the cells were viable after incubation with 5 μM of commercial mitochondrial dye MT for 24 hours. […] The hMSCs were seeded in 12-well plates at a density of 5.0×10^4 cell/cm^2. After 24 h incubation, the cells were exposed to a series of doses of probe MC-Mito1 or MC-Mito2, and MT at 37° C. The concentration of MT (0, 2, 5, 10 μM) was similar as reported in literature.^28 After 24 hours, MTT solution (sigma) was added and kept 3 h in the incubator. MTT solubilization solution was then added into each well and the plate was gently shaken for 10 min at room temperature. The absorbance of MTT in the sample well was determined by subtracting the absorbance of the sample well from corresponding control well. Cell viability was expressed by the ratio of the absorbance of MTT in the sample wells to that of the cells incubated with culture medium only.

hMSCs [3] = test: Cell staining efficiency without washing process; type: cell-based, human
Experimental: To assess their cell staining efficiencies, the hMSCs cells were incubated with MT, MC-Mito1 and MC-Mito2, respectively. Cell staining was continuously recorded in 3 min, 10 min and 25 min without washing process. It was found MC-Mito1 and MC-Mito2 quickly stained the living cells in 10 mins. In contrast, the MT acquired longer time to efficiently stain cells. The fluorescence signal of MC-Mito1 and MC-Mito2 from the ‘blue channel’ on fluorescence microscope (420-470 nm) were confined in cells with a negligible background signal from the culture medium, supporting the hypothesis that the flavone dyes gave higher emission in low-polar environment. Generally, the S/N ratios in fluorescent images were above 3, which could be considered acceptable for the discrimination of mitochondria. Therefore, this wash-free method could be a useful probe for real-time monitor of mitochondrial changes.
Human mesenchymal stem cells (hMSCs) (Lonza, Walkersville, Md.) were cultured in serum-containing MSCBM medium (Lonza) supplemented with MSCGM SingleQuots (Lonza) according to manufacturer's specifications. hMSCs (Passage 5) were seeded at a density of 5.0×10^4 cell/cm^2. […] The cell imaging was obtained on a Zeiss inverted fluorescence microscopy with X-Cite Series 120Q. […]

[4] = Fluorescence quantum yield (rhodamine 6G standard); type: physicochemical; conditions: rhodamine 6G in ethanol as reference; reported after BSA addition experiment
Text: The fluorescence quantum yields were obtained using rhodamine 6G (sigma) as the standard (Φfl=0.95, ethanol). The fluorescence quantum yields can be calculated by using the following Eq: Φs=Φr×(Ar×ns^2×Fs)/(As×nr^2×Fr) where the subscripts s and r refer to the sample and the standard, respectively. Φ is the quantum yield, F is the integrated emission intensity, A is the absorbance, and n is the refractive index. Zebrafish Breeding and Imaging

[5] = molecular target: bovine serum albumin (BSA) (Bos taurus, UniProt P02769); test: Fluorescence response upon addition of bovine serum albumin; type: binding; conditions: 2 equivalents of BSA; 2 μM probe, 1 mM HEPES buffer (1% DMSO); at 495 nm (MC-Mito1) / 490 nm (MC-Mito2)
Chain of bovine serum albumin (BSA) (P02769 25-607): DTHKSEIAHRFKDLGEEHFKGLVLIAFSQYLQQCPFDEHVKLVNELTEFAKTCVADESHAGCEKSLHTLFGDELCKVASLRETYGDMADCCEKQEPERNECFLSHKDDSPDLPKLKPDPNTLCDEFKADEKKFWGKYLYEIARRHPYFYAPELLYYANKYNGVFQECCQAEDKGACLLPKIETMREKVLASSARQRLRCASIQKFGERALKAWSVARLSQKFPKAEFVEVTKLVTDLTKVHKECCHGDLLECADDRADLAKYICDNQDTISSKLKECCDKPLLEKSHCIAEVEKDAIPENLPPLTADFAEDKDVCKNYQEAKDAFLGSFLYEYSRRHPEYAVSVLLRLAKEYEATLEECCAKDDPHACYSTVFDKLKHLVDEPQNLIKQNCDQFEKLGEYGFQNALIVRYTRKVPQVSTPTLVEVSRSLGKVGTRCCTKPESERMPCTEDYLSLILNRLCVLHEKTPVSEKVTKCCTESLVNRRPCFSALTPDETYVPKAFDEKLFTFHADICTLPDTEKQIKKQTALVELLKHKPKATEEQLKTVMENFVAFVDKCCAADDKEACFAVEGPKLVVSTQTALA
Experimental: FIG. 4B provides a graph showing the fluorescence intensity changes of MC-Mito1 in the presence of increasing concentrations of BSA in 1 mM HEPES buffer (1% DMSO). [MC-Mito1]=[MC-Mito2]=2 μM, [BSA]=0˜4 μM. λex=400 nm.
FIG. 11 is a chart showing fluorescence spectra of DMAF ([DMAF]=10 μM, 1 mM HEPES buffer containing 1% DMSO, pH=7.4) upon addition of different concentration of BSA ([BSA]=0-10 μM, 1 mM HEPES).
MC-Mito1 and MC-Mito2 were nearly non-fluorescent in water (QYs <1%), due to specific H-bonding interaction of water solvents with H-bond acceptor carbonyl groups in flavone skeleton. However, upon addition of bovine serum albumin (BSA) into probe water solution, the fluorescence intensity increased sharply (FIG. 4A-D). After addition of 2 equivalent of BSA, the fluorescence intensity of MC-Mito1 at 495 nm was enhanced by about 17-fold, which was accompanied with a large blue-shift (from 540 nm to 495 nm, FIGS. 4A and 4B). […] By using rhodamine 6G in ethanol (QY=95%) as a reference, the fluorescence quantum yield (QY) of MC-Mito1 and MC-Mito2 were determined to be 28% and 33%, respectively. […] The high signal-to-noise ratio (>10) enables the simple wash-free in vivo fluorescence imaging. […]

mitochondria in hMSCs = test: Co-staining with Mitotracker red CMXRos (subcellular distribution); type: cell-based, human; conditions: 5 μM dye and 25 nM MT, 25 min
Experimental: To determine the subcellular distribution of the probes in living cells, the MT were co-incubated with MC-Mito1 and MC-Mito2, respectively. […] Despite that the decrease of membranes potential will severely affect the direction and accumulation of cationic mitochondrial probes.
Human mesenchymal stem cells (hMSCs) (Lonza, Walkersville, Md.) were cultured in serum-containing MSCBM medium (Lonza) supplemented with MSCGM SingleQuots (Lonza) according to manufacturer's specifications. hMSCs (Passage 5) were seeded at a density of 5.0×10^4 cell/cm^2. For co-staining experiments, the hMSCs were seeded on 12-well plate, cultured in MSCBM medium (Lonza) supplemented with MSCGM SingleQuots (Lonza), and incubated with 5 μM MC and 25 nM Mitotracker® red CMXRos (MT), 5 μM MC-Br and 25 nM MT, 5 μM MC-Mito1 and 25 nM MT, 5 μM MC-Mito2 and 25 nM MT for 25 min at 37° C., respectively. Each well contains 1 ml of medium and 0.05 ml DMSO (dissolving probe). The cell imaging was obtained on a Zeiss inverted fluorescence microscopy with X-Cite Series 120Q. The blue channel filter: excitation 365 nm, beam splitter FT 395 nm, emission 445/50 nm. The green channel filter: excitation 450-490 nm, beam splitter FT 510 nm, emission 515-565 nm. The red channel filter: excitation 587/25 nm, beam splitter FT 605 nm, emission 647/70 nm.

[6] = UV absorption and fluorescence spectra of the dyes; conditions: for Stokes shift: in DMSO; for absorption maxima / emission maxima: in DMSO solution

| Structure (SMILES) | specificity to mitochondria after CCCP treatment [1] | uptake / imaging signal (sensitivity) after CCCP treatment [1] | fluorescence quantum yield (QY) [4] [%] | fluorescence intensity enhancement [5] | cell viability (hMSCs [2]) [%] | co-localization with MT (mitochondria) (mitochondria in hMSCs) | Stokes shift [6] [nm] | absorption maxima [6] [nm] | emission maxima [6] [nm] | other results |
| --- | --- | --- | --- | --- | --- | --- | --- | --- | --- | --- |
| N#CC(C#N)=NNc1cccc(Cl)c1 [CCCP, carbonyl cyanide m-chlorophenylhydrazone, reference compound] | – | – | – | – | – | – | – | – | – | mitochondrial morphology ([1]; hMSCs, 10 μM CCCP for 30 min): mostly transformed to small and dispersed fragments |
| ClCc1ccc(C2=c3cc4c5c(c3Oc3c2cc2c6c3CCCN6CCC2)CCC[N+]=5CCC4)cc1.[Cl-] [MT, reference compound] | specificity became worse | decreased by more than half | – | – | – | – | – | – | – | viable cells (hMSCs [2]; hMSCs, 5 μM, 24 hours): less than 10%; time to stain living cells (hMSCs [3]): longer time |
| O=c1c(OCCC[P+](c2ccccc2)(c2ccccc2)c2ccccc2)c(-c2ccc(N3CCOCC3)cc2)oc2ccccc12.[Br-] [MC-Mito1, (3-(2-(4-morpholinophenyl)-4-oxo-4H-chromen-3-yloxy)propyl)triphenylphosphonium bromide] | almost no more specificity to mitochondria | extremely weaker imaging signal than that in normal cells | 28 | about 17 fold | ~100 | matched those stained with MT (red channel) very well | ~127 | 373 | 500 | – |
| O=c1c(OCCCCCC[P+](c2ccccc2)(c2ccccc2)c2ccccc2)c(-c2ccc(N3CCOCC3)cc2)oc2ccccc12.[Br-] [MC-Mito2, (6-(2-(4-morpholinophenyl)-4-oxo-4H-chromen-3-yloxy)hexyl)triphenylphosphonium bromide] | perfectly retained | perfectly retained | 33 | about 55 fold | ~100 | matched well with MT | ~127 | 373 | 500 | – |
| O=c1c(O)c(-c2ccc(N3CCOCC3)cc2)oc2ccccc12 [MC, 3-hydroxy-2-(4-morpholinophenyl)-4H-chromen-4-one] | – | – | – | – | – | almost no co-localization with MT | – | – | – | – |
| O=c1c(OCCCCCCBr)c(-c2ccc(N3CCOCC3)cc2)oc2ccccc12 [MC-Br, 3-(6-bromohexyloxy)-2-(4-morpholinophenyl)-4H-chromen-4-one] | – | – | – | – | – | almost no co-localization with MT | – | – | – | – |
